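Assay format: 96-well plates, 48-hour exposure. GI50 = concentration required for 50% inhibition of growth.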 Activity calls are given as the source filed them. No stated cut-off is given here; in the data, active = GI50 up to about 1.1 µM and inactive = higher.
Tests used:
Test in all cases: NCI anticancer screen, dose series, 48 h
[1] = test system: SF-268
[2] = test system: MOLT-4
[3] = test system: NCI-H460
[4] = test system: CCRF-CEM
[5] = test system: HCT-15
[6] = test system: U-251
[7] = test system: HT-29
[8] = test system: UACC-62
[9] = test system: K562
[10] = test system: OVCAR-4
[11] = test system: HOP-18
[12] = test system: SNB-78
[13] = test system: UACC-257
[14] = test system: SF-295
[15] = test system: LOX IMVI
[16] = test system: SK-MEL-28
[17] = test system: HCC 2998
[18] = test system: TK-10

| SMILES | GI50 [1] | GI50 [2] | GI50 [3] | GI50 [4] | GI50 [5] [µM] | GI50 [6] | GI50 [7] | GI50 [8] | GI50 [9] | GI50 [10] | GI50 [11] | GI50 [12] | GI50 [13] | GI50 [14] | GI50 [15] | GI50 [16] | GI50 [17] | GI50 [18] |
| --- | --- | --- | --- | --- | --- | --- | --- | --- | --- | --- | --- | --- | --- | --- | --- | --- | --- | --- |
| NC(=O)c1ncn(CCN2CCN(C(=O)NCCCCCCNC(=O)N3CCN(CCn4cnc(C(N)=O)c4N)CC3)CC2)c1N | > 100 µM (inactive) | > 100 µM (inactive) | > 100 µM (inactive) | > 100 µM (inactive) | > 100 | > 100 µM (inactive) | > 100 µM (inactive) | > 100 µM (inactive) | > 100 µM (inactive) | > 100 µM (inactive) | > 100 µM (inactive) | > 100 µM (inactive) | > 100 µM (inactive) | > 100 µM (inactive) | > 100 µM (inactive) | > 100 µM (inactive) | > 100 µM (inactive) | > 100 µM (inactive) |
| O=C1C(=O)N(c2ccc(Cl)c(Cl)c2)C(=O)C(=O)C1c1nc2ccccc2s1 | > 100 µM (inactive) | > 100 µM (inactive) |  | 38.2 µM (inactive) | 87.1 | > 100 µM (inactive) | > 100 µM (inactive) | > 100 µM (inactive) |  | > 100 µM (inactive) | 21.8 µM (inactive) | > 100 µM (inactive) | > 100 µM (inactive) | > 100 µM (inactive) | > 100 µM (inactive) | > 100 µM (inactive) | > 100 µM (inactive) | > 100 µM (inactive) |
| CCS(=O)(=O)Nc1ccc(Nc2c3ccccc3nc3ccccc23)c(OC)c1 | 0.421 µM (active) | < 0.01 µM (active) | < 0.0114 µM (active) | 0.0485 µM (active) | 0.682 | 0.158 µM (active) | 1.07 µM (active) | 0.416 µM (active) | 0.681 µM (active) | 4.19 µM (inactive) | 0.809 µM (active) | 4.89 µM (inactive) | 2.6 µM (inactive) | 0.13 µM (active) | 0.275 µM (active) | 3.03 µM (inactive) | 1.72 µM (inactive) |  |
| C=C1CCC2C(C)(CO)C(O)CCC2(C)C1CC(O)/C(=C/CO)C(=O)O (configuration not stated) | > 100 µM (inactive) | > 100 µM (inactive) | > 100 µM (inactive) | > 100 µM (inactive) | > 100 | > 100 µM (inactive) | > 100 µM (inactive) | > 100 µM (inactive) | > 100 µM (inactive) | > 100 µM (inactive) | > 100 µM (inactive) | > 100 µM (inactive) | > 100 µM (inactive) | > 100 µM (inactive) | > 100 µM (inactive) |  | > 100 µM (inactive) | > 100 µM (inactive) |
| Cc1cc(Cl)ccc1NC(=O)CC1SC(Nc2ccccc2Cl)=NC1=O (configuration not stated) | 39 µM (inactive) | 30.2 µM (inactive) | 51.3 µM (inactive) | 29.6 µM (inactive) | 39.9 | 26.4 µM (inactive) | 37.1 µM (inactive) | 30.3 µM (inactive) | 37.8 µM (inactive) | 41.3 µM (inactive) | > 100 µM (inactive) | 49.5 µM (inactive) | 50.2 µM (inactive) | 52.6 µM (inactive) |  | 66.2 µM (inactive) | 52.2 µM (inactive) | 88.5 µM (inactive) |
| O=C(CC1(O)C(=O)Nc2c(Cl)cccc21)c1ccccc1 (configuration not stated) | > 100 µM (inactive) | > 100 µM (inactive) | > 100 µM (inactive) | > 100 µM (inactive) | > 100 | > 100 µM (inactive) | 84.7 µM (inactive) |  | > 100 µM (inactive) | 60 µM (inactive) | > 100 µM (inactive) | > 100 µM (inactive) | > 100 µM (inactive) | > 100 µM (inactive) | > 100 µM (inactive) | > 100 µM (inactive) | > 100 µM (inactive) | > 100 µM (inactive) |

From ChEMBL document CHEMBL1201862, “PubChem BioAssay data set” (2004)
